Earlier results, collected in PMC9175271, “Live-cell microscopy or fluorescence anisotropy with budded baculoviruses—which way to go with measuring ligand binding to M4 muscarinic receptors?” (Open Biology, 2022).

Biological target: M4 receptor
Conditions: mean of literature values, per ligand as in column ref.; ref [50], [63], [74]–[89]

## CN1[C@@H]2C[C@@H](OC(=O)[C@H](CO)c3ccccc3)C[C@H]1[C@@H]1O[C@@H]12 [scopolamine]
  pKi ± s.e.m. (radioligand): 9.28 ± 0.19
